Reference: patent US10221163B2 (priority 2015, dated 2019)

Legend:
VIM-1 = VIM-1 (Pseudomonas aeruginosa (strain ATCC 15692 / DSM 22644 / CIP 104116 / JCM 14847 / LMG 12228 / 1C / PRS 101 / PAO1), UniProt A0A0F7KYQ8); test: biochemical; conditions: fluorescence assay, CCF2-FA substrate, 30 pM enzyme, 2 hours at 25° C.; read-out: VIM-1 IC50
Summary of the method: (§1)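 Enzyme activity was measured by fluorescence using CCF2-FA, a cephalosporin-linked 7-hydroxycoumarin/fluorescein substrate, with inhibitor, metallo-β-lactamase and substrate incubated together for 2 hours at 25° C. IC50 came from a 4-parameter fit of inhibition versus log inhibitor concentration.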

[1] = system: Pseudomonas aeruginosa efflux− (MB9799), IMP-1; assay type: cell-based; conditions: concentration restoring susceptibility to imipenem at 2 μg/mL in the presence of a class A, C, D serine β-lactamase inhibitor closely related to relebactam
Summary of the method: (§2)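 Microbroth MIC tests in PAO1-background strains with fixed imipenem and/or ceftazidime, usually at the CLSI breakpoint, plus fixed class A/C β-lactamase inhibitor against AmpC. MBL inhibitor titrated; concentration restoring susceptibility recorded and compared as fold difference between efflux+ MB9798 and efflux− MB9799.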

[2] = system: Pseudomonas aeruginosa efflux+ (MB9798), IMP-1; assay type: cell-based; conditions: concentration restoring susceptibility to imipenem at 2 μg/mL in the presence of a class A, C, D serine β-lactamase inhibitor closely related to relebactam
Summary of the method: as §2

IMP-1 = IMP-1 (Serratia marcescens, UniProt P52699); test: biochemical; assay type: biochemical; conditions: fluorescence assay, CCF2-FA substrate, 2 pM enzyme, 2 hours at 25° C.; read-out: IMP-1 IC50
Summary of the method: as §1

NDM-1 = NDM-1 (Klebsiella pneumoniae, UniProt C7C422); test: biochemical; assay type: biochemical; conditions: fluorescence assay, CCF2-FA substrate, 1 pM enzyme, 2 hours at 25° C.; read-out: NDM-1 IC50
Summary of the method: as §1

[3] = system: Escherichia coli expressing NDM-1 (CLB30005, CLB30016); assay type: cell-based; conditions: with imipenem 1 μg/ml; 95% inhibition of bacterial growth
Summary of the method: (§3)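 Growth by absorbance after 22–24 h at 35°C defined the read-out, with imipenem fixed at 1 μg/ml alongside compound. Inocula came from overnight blood-agar colonies at 35°C, resuspended in saline and diluted 1:100 in 1.1×CAMHB.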

[4] = system: Klebsiella pneumoniae expressing VIM-1 (IHMA599644); assay type: cell-based; conditions: with imipenem 1 μg/ml; 95% inhibition of bacterial growth
Summary of the method: as §3

[5] = system: Serratia marcescens expressing IMP-1 (CL5741); assay type: cell-based; conditions: with imipenem 1 μg/ml; 95% inhibition of bacterial growth
Summary of the method: as §3

[6] = system: Pseudomonas aeruginosa MB9798 vs MB9799; conditions: ratio MITC95 PA_9798/MITC95 PA_9799
Summary of the method: as §2

NDM-1, sequence (C7C422 whole entry, looked up, species assumed): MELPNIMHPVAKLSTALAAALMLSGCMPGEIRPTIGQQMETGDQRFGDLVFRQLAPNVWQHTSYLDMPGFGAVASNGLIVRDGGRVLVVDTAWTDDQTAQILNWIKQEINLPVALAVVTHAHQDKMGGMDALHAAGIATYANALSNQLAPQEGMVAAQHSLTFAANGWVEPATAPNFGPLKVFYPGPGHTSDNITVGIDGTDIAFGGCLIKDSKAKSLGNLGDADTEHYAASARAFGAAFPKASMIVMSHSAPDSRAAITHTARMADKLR
IMP-1, sequence (P52699 whole entry, looked up, species assumed): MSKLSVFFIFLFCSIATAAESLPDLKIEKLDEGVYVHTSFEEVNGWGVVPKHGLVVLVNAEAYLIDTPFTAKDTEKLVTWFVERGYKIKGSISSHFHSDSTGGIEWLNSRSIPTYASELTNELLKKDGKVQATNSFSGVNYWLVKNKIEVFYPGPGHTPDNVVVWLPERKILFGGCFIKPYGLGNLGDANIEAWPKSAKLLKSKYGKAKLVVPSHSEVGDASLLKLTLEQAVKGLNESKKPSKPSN

| SMILES | IC50 (VIM-1) | P. aeruginosa expressing IMP-1, efflux − (MB9799) MITC95 [1] | P. aeruginosa expressing IMP-1, efflux + (MB9798) MITC95 [2] | IC50 (IMP-1) | IC50 (NDM-1) | Escherichia coli expressing NDM-1 (CLB30016) MITC95 [3] | Klebsiella pneumoniae expressing VIM-1 (IHMA599644) MITC95 [4] | Serratia marcescens expressing IMP-1 (CL5741) MITC95 [5] | Efflux ratio [6] |
| --- | --- | --- | --- | --- | --- | --- | --- | --- | --- |
| CN1CCC(N(C)S(=O)(=O)c2ccc(-c3cccc4sc(N)nc34)c(-c3nnn[nH]3)c2S(N)(=O)=O)C1 (stereo not drawn) [Example 54, 4-(2-amino-1,3-benzothiazol-4-yl)-N1-methyl-N1-(1-methylpyrrolidin-3-yl)-3-(1H-tetrazol-5-yl)benzene-1,2-disulfonamide] | 3.64 nM | 3.125 µM | 6.25 µM | 1.93 nM | 0.19 nM | 6.25 µM | 6.25 µM | 3.125 µM | 2.00 |
| Nc1nc2c(-c3ccc(S(=O)(=O)N4CCC(N)(CO)C4)c(S(N)(=O)=O)c3-c3nnn[nH]3)cccc2s1 (stereo not drawn) [Example 55, 3-(2-amino-1,3-benzothiazol-4-yl)-6-{[3-amino-3-(hydroxymethyl)pyrrolidin-1-yl]sulfonyl}-2-(1H-tetrazol-5-yl)benzenesulfonamide] | 1.46 nM | 3.125 µM | 3.125 µM | 0.86 nM | 0.51 nM | 3.125 µM | 6.25 µM | 3.125 µM | 1.00 |
| CCC1(NS(=O)(=O)c2ccc(-c3cccc4sc(N)nc34)c(-c3nnn[nH]3)c2S(N)(=O)=O)CCNC1 (stereo not drawn) [Example 56, 4-(2-amino-1,3-benzothiazol-4-yl)-N1-(3-ethylpyrrolidin-3-yl)-3-(1H-tetrazol-5-yl)benzene-1,2-disulfonamide] | 0.245 nM | 1.563 µM | 1.563 µM | 0.342 nM | 0.0519 nM | 1.563 µM | 3.125 µM | 3.125 µM | 1.00 |
| CC1(NS(=O)(=O)c2ccc(-c3cccc4sc(N)nc34)c(-c3nnn[nH]3)c2S(N)(=O)=O)CCCNC1 (stereo not drawn) [Example 57, 4-(2-amino-1,3-benzothiazol-4-yl)-N1-(3-methylpiperidin-3-yl)-3-(1H-tetrazol-5-yl)benzene-1,2-disulfonamide] | 0.355 nM | 3.125 µM | 3.125 µM | 0.554 nM | 0.0853 nM | 3.125 µM | 3.125 µM | 6.25 µM | 1.00 |
| Nc1nc2c(-c3ccc(S(=O)(=O)N[C@@H]4CNC[C@@H]4F)c(S(N)(=O)=O)c3-c3nnn[nH]3)cccc2s1 [Example 58, 4-(2-amino-1,3-benzothiazol-4-yl)-N1-[(3R,4S)-4-fluoropyrrolidin-3-yl]-3-(1H-tetrazol-5-yl)benzene-1,2-disulfonamide] | 0.404 nM | 1.563 µM | 1.563 µM | 0.759 nM | 0.0686 nM | 1.563 µM | 3.125 µM | 1.563 µM | 1.00 |
| Nc1nc2c(-c3ccc(S(=O)(=O)N[C@H]4CNC[C@@H]4F)c(S(N)(=O)=O)c3-c3nnn[nH]3)cccc2s1 [Example 59, 4-(2-amino-1,3-benzothiazol-4-yl)-N1-[(3S,4S)-4-fluoropyrrolidin-3-yl]-3-(1H-tetrazol-5-yl)benzene-1,2-disulfonamide] | 0.309 nM | 1.563 µM | 1.563 µM | 0.558 nM | 0.0357 nM | 1.563 µM | 3.125 µM | 1.563 µM | 1.00 |
